Consider 14 compounds from patent publication US11053239B2, “Compounds as BLC-2-selective apoptosis-inducing agents” (Fochon Pharmaceuticals, Ltd., priority 2017, dated 2021).

Like-named read-outs stand apart in the source and are kept apart here.

For one test, the system named is DOHH2 cells. Description: Cell proliferation assay (MTS), DOHH2 cells. Format: cell-based. The note with it: DOHH2 (DSMZ ACC 47) cell proliferation, 5000 cells/well, 120 h, MTS, mechanism-based readout of Bcl-2 inhibition, read-out: DOHH2 IC50. In a few lines:
(§1)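 RS4;11 (30000 cells/well, 72 h) and DOHH2 (5000 cells/well, 120 h) cells in RPMI-1640/10% FBS, treated at 37 °C with compound at 1.5–10000 nM final. Viability by MTS (2 h, SDS stop), absorbance 490 nm minus 650 nm reference; IC50 fitted.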

In another test the test system is RS4; 11 cells. Put plainly: Cell proliferation assay (MTS), RS4; 11 cells. It is filed as cell-based. The note with it: RS4, 11 (ATCC CRL-1873) cell proliferation, 30000 cells/well, 72 h, MTS, mechanism-based readout of Bcl-2 inhibition, read-out: RS4, 11 IC50. In a few lines: as §1

Consider `CCN=S1(=O)CCN(C[C@H](C)Nc2ccc(S(=O)(=O)NC(=O)c3ccc(N4CCN(CC5=C(c6ccc(Cl)cc6)CC(C)(C)CC5)CC4)cc3Oc3cnc4[nH]ccc4c3)cc2[N+](=O)[O-])CC1` [Example 38, (S)-((1H-pyrrolo[2,3-b]pyridin-5-yl)oxy)-4-(4-((4′-chloro-5,5-dimethyl-3,4,5,6-tetrahydro-[1,1′-biphenyl]-2-yl)methyl)piperazin-1-yl)-N-((4-((1-(1-(ethylimino)-1-oxido-1λ^6-thiomorpholino)propan-2-yl)amino)-3-nitrophenyl)sulfonyl) benzamide], for which the IC50 was 108 nM with DOHH2 cells (Homo sapiens, DOHH-2, 120 h) and 28 nM in the test on RS4; 11 cells (Homo sapiens, RS4-11, 72 h).
For `CCC(=O)N=S1(=O)CCN(CCNc2ccc(S(=O)(=O)NC(=O)c3ccc(N4CCN(CC5=C(c6ccc(Cl)cc6)CC(C)(C)CC5)CC4)cc3Oc3cnc4[nH]ccc4c3)cc2[N+](=O)[O-])CC1` [Example 67, 2-((1H-pyrrolo[2,3-b]pyridin-5-yl)oxy)-4-(4-((4′-chloro-5,5-dimethyl-3,4,5,6-tetrahydro-[1,1′-biphenyl]-2-yl)methyl)piperazin-1-yl)-N-((3-nitro-4-((2-(1-oxido-1-(propionylimino)-1λ^6-thiomorpholino)ethyl)amino)phenyl)sulfonyl)benzamide], the IC50 amounted to 138 nM in the test on DOHH2 cells (Homo sapiens, DOHH-2, 120 h) and 32 nM with RS4; 11 cells (Homo sapiens, RS4-11, 72 h).
As to `C[C@@H](CCN1CCS(=O)(=NC#N)CC1)Nc1ccc(S(=O)(=O)NC(=O)c2ccc(N3CCN(CC4=C(c5ccc(Cl)cc5)CC(C)(C)CC4)CC3)cc2Oc2cnc3[nH]ccc3c2)cc1[N+](=O)[O-]` [Example 95, (S)-2-((1H-pyrrolo[2,3-b]pyridin-5-yl)oxy)-4-(4-((4′-chloro-5,5-dimethyl-3,4,5,6-tetrahydro-[1,1′-biphenyl]-2-yl)methyl)piperazin-1-yl)-N-((4-((4-(1-(cyanoimino)-1-oxido-1λ^6-thiomorpholino)butan-2-yl)amino)-3-nitrophenyl)sulfonyl) benzamide], the IC50 in the test with DOHH2 cells (Homo sapiens, DOHH-2, 120 h) stood at 71 nM; in the test with RS4; 11 cells (Homo sapiens, RS4-11, 72 h) it was 22 nM.
In the case of `CC1(C)CCC(CN2CCN(c3ccc(C(=O)NS(=O)(=O)c4ccc(NCC5CCC(N=S(C)(C)=O)CO5)c([N+](=O)[O-])c4)c(Oc4cnc5[nH]ccc5c4)c3)CC2)=C(c2ccc(Cl)cc2)C1` (stereo not shown) [Example 57, 2-((1H-pyrrolo[2,3-b]pyridin-5-yl)oxy)-4-(4-((4′-chloro-5,5-dimethyl-3,4,5,6-tetrahydro-[1,1′-biphenyl]-2-yl)methyl)piperazin-1-yl)-N-((4-(((5-((dimethyl(oxo)-λ^6-sulfanylidene)amino)tetrahydro-2H-pyran-2-yl)methyl)amino)-3-nitrophenyl)sulfonyl)benzamide], the IC50 with DOHH2 cells (Homo sapiens, DOHH-2, 120 h) turned out to be 30 nM; in the test on RS4; 11 cells (Homo sapiens, RS4-11, 72 h), 20 nM.
With `CC(C)C(=O)N=S1(=O)CCN(C[C@H](C)Nc2ccc(S(=O)(=O)NC(=O)c3ccc(N4CCN(CC5=C(c6ccc(Cl)cc6)CC(C)(C)CC5)CC4)cc3Oc3cnc4[nH]ccc4c3)cc2[N+](=O)[O-])CC1` [Example 66, (S)-2-((1H-pyrrolo[2,3-b]pyridin-5-yl)oxy)-4-(4-((4′-chloro-5,5-dimethyl-3,4,5,6-tetrahydro-[1,1′-biphenyl]-2-yl)methyl)piperazin-1-yl)-N-((4-((1-(1-(isobutyrylimino)-1-oxido-1λ^6-thiomorpholino)propan-2-yl)amino)-3-nitrophenyl)sulfonyl) benzamide], the IC50 with DOHH2 cells (Homo sapiens, DOHH-2, 120 h) is 23 nM; in the test with RS4; 11 cells (Homo sapiens, RS4-11, 72 h) it was 11 nM.
As to `CC(C)C(=O)N=S1(=O)CCN(CC[C@H](C)Nc2ccc(S(=O)(=O)NC(=O)c3ccc(N4CCN(CC5=C(c6ccc(Cl)cc6)CC(C)(C)CC5)CC4)cc3Oc3cnc4[nH]ccc4c3)cc2[N+](=O)[O-])CC1` [Example 82, (S)-2-((1H-pyrrolo[2,3-b]pyridin-5-yl)oxy)-4-(4-((4′-chloro-5,5-dimethyl-3,4,5,6-tetrahydro-[1,1′-biphenyl]-2-yl)methyl)piperazin-1-yl)-N-((4-((4-(1-(isobutyrylimino)-1-oxido-1λ^6-thiomorpholino)butan-2-yl)amino)-3-nitrophenyl)sulfonyl)benzamide], the IC50 in the test with DOHH2 cells (Homo sapiens, DOHH-2, 120 h) amounted to 18 nM; in the test with RS4; 11 cells (Homo sapiens, RS4-11, 72 h), 10 nM.
For the compound `C[C@@H](CCN1CCS(=O)(=NC2CC2)CC1)Nc1ccc(S(=O)(=O)NC(=O)c2ccc(N3CCN(CC4=C(c5ccc(Cl)cc5)CC(C)(C)CC4)CC3)cc2Oc2cnc3[nH]ccc3c2)cc1S(=O)(=O)C(F)(F)F` [Example 88, (S)-2-((1H-pyrrolo[2,3-b]pyridin-5-yl)oxy)-4-(4-((4′-chloro-5,5-dimethyl-3,4,5,6-tetrahydro-[1,1′-biphenyl]-2-yl)methyl)piperazin-1-yl)-N-((4-((4-(1-(cyclopropylimino)-1-oxido-1λ^6-thiomorpholino)butan-2-yl)amino)-3-((trifluoromethyl)sulfonyl)phenyl)sulfonyl)benzamide], the IC50 in the test on DOHH2 cells (Homo sapiens, DOHH-2, 120 h) amounted to 464 nM; in the test on RS4; 11 cells (Homo sapiens, RS4-11, 72 h) it was 187 nM.
`CC(C)OC(=O)N=S1(=O)CCN(CC[C@H](C)Nc2ccc(S(=O)(=O)NC(=O)c3ccc(N4CCN(CC5=C(c6ccc(Cl)cc6)CC(C)(C)CC5)CC4)cc3Oc3cnc4[nH]ccc4c3)cc2S(=O)(=O)C(F)(F)F)CC1` [Example 93, isopropyl (S)-(4-(3-((4-(N-(2-((1H-pyrrolo[2,3-b]pyridin-5-yl)oxy)-4-(4-((4′-chloro-5,5-dimethyl-3,4,5,6-tetrahydro-[1,1′-biphenyl]-2-yl)methyl)piperazin-1-yl)benzoyl)sulfamoyl)-2-((trifluoromethyl)sulfonyl)phenyl)amino)butyl)-1-oxido-1λ^6-thiomorpholin-1-ylidene) carbamate]: the IC50 with DOHH2 cells (Homo sapiens, DOHH-2, 120 h) was 537 nM; in the test on RS4; 11 cells (Homo sapiens, RS4-11, 72 h) it was 184 nM.
In the case of “2-((1H-pyrrolo[2,3-b] pyridin-5-yl)oxy)-4-(4-((4′- chloro-5,5-dimethyl-3,4,5,6- tetrahydro-[1,1′-biphenyl]-2-yl) methyl)piperazin-1-yl)- N-((4-((2-(4-((dimethyl(oxo)-λ^6- sulfanylidene) amino)piperidin-1-yl)ethyl) amino)-3-nitrophenyl)sulfonyl) benzamide [Example 98]”, the IC50 in the test with DOHH2 cells was 176 nM; with RS4; 11 cells, 2 nM.
In the case of `CC(=O)N=S1(=O)CCN(CC[C@H](C)Nc2ccc(S(=O)(=O)NC(=O)c3ccc(N4CCN(CC5=C(c6ccc(Cl)cc6)CC(C)(C)CC5)CC4)cc3Oc3cnc4[nH]ccc4c3)cc2S(=O)(=O)C(F)(F)F)CC1` [Example 89, (S)-2-((1H-pyrrolo[2,3-b]pyridin-5-yl)oxy)-N-((4-((4-(1-(acetylimino)-1-oxido-1λ^6-thiomorpholino)butan-2-yl)amino)-3-((trifluoromethyl)sulfonyl)phenyl)sulfonyl)-4-(4-((4′-chloro-5,5-dimethyl-3,4,5,6-tetrahydro-[1,1′-biphenyl]-2-yl)methyl)piperazin-1-yl)benzamide], the IC50 came out at 112 nM in the test on DOHH2 cells (Homo sapiens, DOHH-2, 120 h) and 53 nM in the test on RS4; 11 cells (Homo sapiens, RS4-11, 72 h).
For the compound `CC1(C)CCC(CN2CCN(c3ccc(C(=O)NS(=O)(=O)c4ccc(NCCN5CCS(=O)(=NC6CC6)CC5)c([N+](=O)[O-])c4)c(Oc4cnc5[nH]ccc5c4)c3)CC2)=C(c2ccc(Cl)cc2)C1` [Example 35, 2-((1H-pyrrolo[2,3-b]pyridin-5-yl)oxy)-4-(4-((4′-chloro-5,5-dimethyl-3,4,5,6-tetrahydro-[1,1′-biphenyl]-2-yl)methyl)piperazin-1-yl)-N-((4-((2-(1-(cyclopropylimino)-1-oxido-1λ^6-thiomorpholino)ethyl)amino)-3-nitrophenyl)sulfonyl)benzamide], the IC50 with DOHH2 cells (Homo sapiens, DOHH-2, 120 h) is 181 nM; in the test on RS4; 11 cells (Homo sapiens, RS4-11, 72 h) it was 60 nM.
In the case of `CC1(C)CCC(CN2CCN(c3ccc(C(=O)NS(=O)(=O)c4ccc(NCC5CCC(NS(C)(=N)=O)CC5)c([N+](=O)[O-])c4)c(Oc4cnc5[nH]ccc5c4)c3)CC2)=C(c2ccc(Cl)cc2)C1` (stereo not shown) [Example 56, 4-(4-{[2-(4-chlorophenyl)-4,4-dimethylcyclohexyl-1-en-1-yl]methyl}piperazin-1-yl)-N-(4-{[(4-methanesulfono-imidamidocyclohexyl)methyl]amino}-3-nitrobenzenesulfonyl)-2-{1H-pyrrolo[2,3-b]pyridine-5-yloxy}benzamide], the IC50 with DOHH2 cells worked out at 50 nM; in the test with RS4; 11 cells it was 12 nM.
Turning to `CC1(C)CCC(CN2CCN(c3ccc(C(=O)NS(=O)(=O)c4ccc(NC(CF)CN5CCP(C)(=O)CC5)c([N+](=O)[O-])c4)c(Oc4cnc5[nH]ccc5c4)c3)CC2)=C(c2ccc(Cl)cc2)C1` (stereo not shown) [Example 20, 2-((1H-pyrrolo[2,3-b]pyridin-5-yl)oxy)-4-(4-((4′-chloro-5,5-dimethyl-3,4,5,6-tetrahydro-[1,1′-biphenyl]-2-yl)methyl)piperazin-1-yl)-N-((4-((1-fluoro-3-(4-methyl-4-oxido-1,4-azaphosphinan-1-yl)propan-2-yl)amino)-3-nitrophenyl)sulfonyl)benzamide], the IC50 was determined as 388 nM in the test with DOHH2 cells (Homo sapiens, DOHH-2, 120 h) and 333 nM in the test with RS4; 11 cells (Homo sapiens, RS4-11, 72 h).
For the compound `CCS(=O)(CC)=NC1CCC(CNc2ccc(S(=O)(=O)NC(=O)c3ccc(N4CCN(CC5=C(c6ccc(Cl)cc6)CC(C)(C)CC5)CC4)cc3Oc3cnc4[nH]ccc4c3)cc2[N+](=O)[O-])CC1` (stereo not shown) [Example 9A, 2-((1H-pyrrolo[2,3-b]pyridin-5-yl)oxy)-4-(4-((4′-chloro-5,5-dimethyl-3,4,5,6-tetrahydro-[1,1′-biphenyl]-2-yl)methyl)piperazin-1-yl)-N-((4-((((1r,4r)-4-((diethyl(oxo)-λ^6-sulfanylidene)amino)cyclohexyl)methyl)amino)-3-nitrophenyl)sulfonyl)benzamide], the IC50 with DOHH2 cells (Homo sapiens, DOHH-2, 120 h) worked out at 67 nM; with RS4; 11 cells (Homo sapiens, RS4-11, 72 h) it was 4 nM.
